Test results from patent publication US8283353B2, “Fused ring compound and use thereof” (Takeda Pharmaceutical Company Limited, priority 2009, dated 2012).

Legend:
human PPARγ = target: T1, human PPARγ (Homo sapiens, UniProt P37231); assay: PPARγ agonistic activity: luciferase reporter assay in PPARγ:RXRα:4ERPP/CHO-K1 cells; type: cell-based; conditions: CHO-K1, test compound 10^−6 M; luciferase activity of control compound X (1 μM) = 100%, non-administration group = 0%
T1 construct: expressed in transfected cells
T1 sequence (P37231 1-477 isoform P37231-2): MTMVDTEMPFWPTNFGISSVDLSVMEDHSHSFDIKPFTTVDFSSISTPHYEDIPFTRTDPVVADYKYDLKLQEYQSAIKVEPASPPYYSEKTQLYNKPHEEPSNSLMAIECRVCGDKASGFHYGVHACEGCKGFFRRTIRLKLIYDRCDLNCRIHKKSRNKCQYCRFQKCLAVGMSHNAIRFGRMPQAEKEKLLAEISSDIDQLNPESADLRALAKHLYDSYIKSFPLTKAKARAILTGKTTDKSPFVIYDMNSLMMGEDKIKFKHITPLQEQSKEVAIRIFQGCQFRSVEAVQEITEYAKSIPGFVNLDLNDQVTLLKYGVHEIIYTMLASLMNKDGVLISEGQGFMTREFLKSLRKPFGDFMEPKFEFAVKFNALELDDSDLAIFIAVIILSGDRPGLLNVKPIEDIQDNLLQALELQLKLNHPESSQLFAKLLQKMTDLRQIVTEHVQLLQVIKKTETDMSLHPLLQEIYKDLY
T1 sequence (P19793 1-462 partner): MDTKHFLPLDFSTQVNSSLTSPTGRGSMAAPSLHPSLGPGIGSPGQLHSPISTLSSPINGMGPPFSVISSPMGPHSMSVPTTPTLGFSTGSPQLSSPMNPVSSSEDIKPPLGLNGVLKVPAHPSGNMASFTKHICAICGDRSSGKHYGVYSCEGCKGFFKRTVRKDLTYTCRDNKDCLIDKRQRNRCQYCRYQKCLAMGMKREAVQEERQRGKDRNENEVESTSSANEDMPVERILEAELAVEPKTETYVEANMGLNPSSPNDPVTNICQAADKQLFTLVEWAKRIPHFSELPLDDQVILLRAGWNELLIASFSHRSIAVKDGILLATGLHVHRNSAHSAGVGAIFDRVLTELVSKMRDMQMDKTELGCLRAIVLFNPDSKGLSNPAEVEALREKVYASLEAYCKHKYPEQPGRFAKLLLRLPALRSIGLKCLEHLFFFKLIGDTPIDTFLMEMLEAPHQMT
Excerpt: A CHO-K1 cell cultured in a 150 cm^2 cell culture flask [manufactured by Corning Costar Corporation, USA] comprising Ham's F12 medium [manufactured by INVITROGEN, USA] supplemented with 10% fetal bovine serum [manufactured by INVITROGEN, USA] was taken off by treating with 0.5 g/L trypsin-0.2 g/L EDTA (ethylenediamine tetraacetate) [manufactured by Life Technologies, Inc., USA], and then the cell was washed with PBS (Phosphate-buffered saline) [manufactured by INVITROGEN, USA], centrifuged (1000 rpm, 5 minutes) and suspended in PBS. Subsequently, DNA was introduced into the cell under the conditions shown below using GENE PULSER [manufactured by Bio-Rad Laboratories, USA].
Namely, to a cuvette having a 0.4 cm gap were added 8×10^6 cells and 10 μg of plasmid pVgRXR2-hPPARγ obtained in the above-mentioned (4) and 10 μg of reporter plasmid pGL3-4ERPP-TK neo obtained in the above-mentioned (3), which was subjected to electroporation at the voltage of 0.25 kV under the capacitance of […] Subsequently, the cell was transferred into a F12 medium comprising 10% fetal bovine serum and cultured for 24 hours, and then the cell was taken off again and centrifuged. Then, the pellet was suspended in Ham's F12 medium comprising 10% fetal bovine serum supplemented with 500 μg/ml of Geneticin [manufactured by INVITROGEN, USA] and 250 μg/ml of Zeocin [manufactured by INVITROGEN, USA]. The obtained suspension was diluted to the density of 10^4 cells/ml and inoculated in a 96-well plate [manufactured by Corning Costar Corporation, USA], which was cultured in a CO2 gas incubator at 37° C., whereby obtaining a Geneticin- and Zeocin-resistant transformant.
Subsequently, after the transformed cell line thus obtained was cultured in a 24-well plate [manufactured by Corning Costar Corporation, USA], a cell line in which expression of the luciferase was induced, i.e., PPARγ:RXRα:4ERPP/CHO-K1 cell was selected by the addition of 10 μM pioglitazone hydrochloride.
PPARγ:RXRα:4ERPP/CHO-K1 cells obtained in the above-mentioned (5) were cultured in F12 medium [manufactured by INVITROGEN, USA] containing 10% fetal bovine serum [manufactured by MOREGATE, Australia], seeded in a 96 well half-area white plate [manufactured by Corning Coster Corporation, USA] at 5×10^3 cells/well, and cultured in a CO2 incubator at 37° C. overnight.
Then, the medium was removed from the 96 well half-area white plate, hamF12 medium containing 0.1% fatty acid-free bovine serum albumin (BSA) (45 μl) and a test compound (5 μl) were added, and the mixture was cultured in the CO2 incubator at 37° C. for 1 day. After removing the medium, Picagene 7.5 [manufactured by Dai Nippon Inki, Japan] (20 μl) diluted 2-fold with HBSS (HANKS' BALANCED SALT SOLUTION) [manufactured by BIO […], USA] was added, and the mixture was stirred. Using 1420 ARVO Multilabel Counter [manufactured by PerkinElmer, USA], luciferase activity was measured. The percentage (%) was calculated from the luciferase activity of the test compound when the luciferase activity of the control compound (compound X: 5-[3-(4-{[2-(2-furyl)-5-methyl-1,3-oxazol-4-yl]methoxy}-3-methoxyphenyl)propyl]-1,3-oxazolidine-2,4-dione) (1 μM) was taken as 100% and the luciferase activity of the test compound non-administration group was taken as 0%.

human AT1 receptor = target: T2, human AT1 receptor (Homo sapiens, UniProt P30556); assay: AT1 receptor antagonistic activity: [125I]-angiotensin II binding assay on human AT1 receptor-expressing CHO-K1 cellular membrane fraction; conditions: 22.5 pM [125I]-angiotensin II, 1 hr room temperature
T2 construct: expressed in transfected cells; membrane fraction
T2 sequence (P30556 1-359): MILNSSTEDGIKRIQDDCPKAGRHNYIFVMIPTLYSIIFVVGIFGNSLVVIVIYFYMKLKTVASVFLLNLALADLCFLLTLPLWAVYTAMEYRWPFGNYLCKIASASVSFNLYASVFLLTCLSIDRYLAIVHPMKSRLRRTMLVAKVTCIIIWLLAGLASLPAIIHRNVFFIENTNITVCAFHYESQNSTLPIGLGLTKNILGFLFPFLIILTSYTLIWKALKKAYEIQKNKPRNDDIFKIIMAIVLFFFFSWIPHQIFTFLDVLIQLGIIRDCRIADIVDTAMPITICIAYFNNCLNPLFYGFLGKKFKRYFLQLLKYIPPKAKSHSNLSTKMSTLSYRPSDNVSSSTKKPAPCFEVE
Method: CHO-K1 cell (RIKEN, Japan) capable of stable expression of human AT1 receptor was cultured, recovered, suspended in homogenize buffer (10 mM NaHCO3 (pH 7.4), 5 mM EDTA, 1× Complete EDTA free) [manufactured by Roche, Switzerland], and homogenized. The homogenate was centrifuged at low-speed (900×g, 10 min, 4° C.), and the supernatant was recovered and ultracentrifuged (90,000×g, 1 hr, 4° C.). The supernatant was discarded, and the pellets were resuspended in suspension buffer (50 mM Tris (pH 7.4), 1 mM EDTA, 1× Complete EDTA free).
(9 μg) in the presence of AT1 membrane and test compound in 100 μl, (total reaction volume) of reaction buffer (50 mM Tris (pH 7.4), 10 mM MgCl2 supplemented or not supplemented with 0.3 mg/mL fatty acid-free bovine serum albumin [manufactured by Wako Pure Chemical Industries, Ltd., Japan]). The reaction mixture was incubated in 96 well polypropylene plate for 1 hr at room temperature, and the reaction was quenched by rapid filtration (96 well cell harvester) through a GF/C filter treated with wash buffer (50 mM Tris (pH 7.4)). Subsequently, the filter was washed 5 times with 0.3 mL of ice-cooled wash buffer. […] Total binding was measured in the presence of 1% DMSO and nonspecific binding was measured in the presence of […] Candesartan.

| activation at 1 µM (human PPARγ) [%] | IC50 (human AT1 receptor) [nM] | Compound |
| --- | --- | --- |
| 32 | 1.8 | CCCCc1c(Cc2ccc(-c3ccccc3-c3noc(=O)[nH]3)cc2)c(=O)n([C@H]2CC[C@H](OCC(C)O)CC2)c2ccnn12 (relative stereo) [Example 436, 7-butyl-4-[trans-4-(2-hydroxypropoxy)cyclohexyl]-6-{[2′-(5-oxo-4,5-dihydro-1,2,4-oxadiazol-3-yl)biphenyl-4-yl]methyl}pyrazolo[1,5-a]pyrimidin-5(4H)-one] |
| 31 | 2 | CCCc1c(Cc2ccc(-c3ccccc3-c3noc(=O)[nH]3)cc2)c(=O)n([C@H]2CC[C@H](OCC(O)C(F)(F)F)CC2)c2ncnn12 (stereo partly drawn) [Example 325, 6-{[2′-(5-oxo-4,5-dihydro-1,2,4-oxadiazol-3-yl)biphenyl-4-yl]methyl}-7-propyl-4-[trans-4-(3,3,3-trifluoro-2-hydroxypropoxy)cyclohexyl][1,2,4]triazolo[1,5-a]pyrimidin-5(4H)-one] |
| 33 | 2.1 | CCCc1c(Cc2ccc(-c3ccccc3-c3noc(=O)[nH]3)cc2F)c(=O)n([C@H]2CC[C@H](OC(C)C3(O)CCC3)CC2)c2ncnn12 (stereo partly drawn) [Example 371, 6-{[3-fluoro-2′-(5-oxo-4,5-dihydro-1,2,4-oxadiazol-3-yl)biphenyl-4-yl]methyl}-4-{trans-4-[1-(1-hydroxycyclobutyl)ethoxy]cyclohexyl}-7-propyl[1,2,4]triazolo[1,5-a]pyrimidin-5(4H)-one] |
| 28 | 3.1 | CCCc1c(Cc2ccc(-c3ccccc3-c3noc(=O)[nH]3)cc2)c(=O)n([C@H]2CC[C@]3(CCC(CO)O3)CC2)c2ncnn12 (stereo partly drawn) [Example 391, 4-[(5S,8S)-2-(hydroxymethyl)-1-oxaspiro[4.5]dec-8-yl]-6-{[2′-(5-oxo-4,5-dihydro-1,2,4-oxadiazol-3-yl)biphenyl-4-yl]methyl}-7-propyl[1,2,4]triazolo[1,5-a]pyrimidin-5(4H)-one] |
| 18 | 3.2 | CCCc1c(Cc2ccc(-c3ccccc3-c3nnn[nH]3)cc2)c(=O)n(C2CCC3(CC2)OC(C)(C)C(C)(C)O3)c2ncnn12 [Example 181, 7-propyl-4-(2,2,3,3-tetramethyl-1,4-dioxaspiro[4.5]dec-8-yl)-6-{[2′-(1H-tetrazol-5-yl)biphenyl-4-yl]methyl}[1,2,4]triazolo[1,5-a]pyrimidin-5(4H)-one] |
| 31 | 3.5 | CCCc1c(Cc2ccc(-c3ccccc3-c3noc(=O)[nH]3)cc2)c(=O)n(C2CCC3(CC2)OC(C)(C)C(C)(C)O3)c2ncnn12 [Example 180, 6-{[2′-(5-oxo-4,5-dihydro-1,2,4-oxadiazol-3-yl)biphenyl-4-yl]methyl}-7-propyl-4-(2,2,3,3-tetramethyl-1,4-dioxaspiro[4.5]dec-8-yl)[1,2,4]triazolo[1,5-a]pyrimidin-5(4H)-one] |
| 39 | 2.4 | CCCc1c(Cc2ccc(-c3ccccc3-c3noc(=O)[nH]3)cc2)c(=O)n(C2CCC(OC)CC2)c2ncnn12 (centres unmarked) [Example 152, 4-(4-methoxycyclohexyl)-6-{[2′-(5-oxo-4,5-dihydro-1,2,4-oxadiazol-3-yl)biphenyl-4-yl]methyl}-7-propyl[1,2,4]triazolo[1,5-a]pyrimidin-5(4H)-one] |
| 8 | 1.3 | CCCCc1c(Cc2ccc(-c3ccccc3-c3noc(=O)[nH]3)cc2)c(=O)n([C@@H]2C[C@@H](C)O[C@@H](C)C2)c2ncnn12 [Example 138, 7-butyl-4-[(2R,4s,6S)-2,6-dimethyltetrahydro-2H-pyran-4-yl]-6-{[2′-(5-oxo-4,5-dihydro-1,2,4-oxadiazol-3-yl)biphenyl-4-yl]methyl}[1,2,4]triazolo[1,5-a]pyrimidin-5(4H)-one] |
| 49 | 3 | CCCc1c(Cc2ccc(-c3ccccc3-c3noc(=O)[nH]3)cc2)c(=O)n(Cc2ccc(C(C)=O)cc2)c2ncnn12 [Example 28, 4-(4-acetylbenzyl)-6-{[2′-(5-oxo-4,5-dihydro-1,2,4-oxadiazol-3-yl)biphenyl-4-yl]methyl}-7-propyl[1,2,4]triazolo[1,5-a]pyrimidin-5(4H)-one] |
| 16 | 1.9 | CCCc1c(Cc2ccc(-c3ccccc3-c3noc(=O)[nH]3)cc2)c(=O)n([C@H]2CC[C@H](Oc3ccc(C(C)(C)O)cc3)CC2)c2ncnn12 [Example 280, 4-{trans-4-[4-(1-hydroxy-1-methylethyl)phenoxy]cyclohexyl}-6-{[2′-(5-oxo-4,5-dihydro-1,2,4-oxadiazol-3-yl)biphenyl-4-yl]methyl}-7-propyl[1,2,4]triazolo[1,5-a]pyrimidin-5(4H)-one] |
